Measurements taken from patent US20200363399A1, “SYSTEM AND METHOD FOR DETERMINING TUMOR INVASIVENESS” (University of Southern California, priority 2012, published 2020).

Tested on: MDA-MB-231 cells
Test: Effect of Taxol on HFFU-induced Ca2+ elevations (cell response index, CRI), live-cell calcium fluorescence imaging
Assay type: cell-based, human
Details: for normalized CRI (cell response index): 24 h treatment, HFFU stimulation, n=10, normalized to 0 nM = 1.0
Protocol: In order to perform live-cell fluorescence imaging of target cells stimulated by HFFU, a HFFU stimulation system was added to an inverted epifluorescence microscope (Olympus 1X70). In order to generate the highly focused ultrasound beam for single cell stimulation, a 200-MHz press-focused LiNbO3 transducer (fc: 200 MHz and bandwidth: 29%) was used. The transducer was constructed with conventional transducer fabrication procedures (Lam et al., 2013). The focal length of the transducer was 1.3 mm and the f-number (F#) was 1.6. The measured beam width of the highly focused ultrasound beam was 17 μm, which was close to the predicted value of 12 μm (=focal length×wavelength) and approximately the size of a breast cancer cell. In order to generate the 200-MHz ultrasound beam, 200-MHz sinusoidal bursts from a function generator (Stanford Research Systems, Sunnyvale, Calif.) fed into a 50-dB power amplifier (525LA, ENI, USA) were used to drive the transducer. The resultant peak-to-peak (Vpp) voltages of the bursts were adjusted to 4, 8, 16, and 32 V. The duty factor was tuned to 1%, and the pulse repetition frequency (PRF) was 1 kHz.
Live-cell fluorescence imaging was carried out on the epifluorescence microscope to monitor the cytoplasmic Ca^2+ elevations elicited by HFFU in individual MDA-MB-231, MCF-7, SKBR3, and BT-474 cells labeled with Fluo-4 AM. Light from a mercury lamp was delivered to the cells for excitation after passing through an electronic shutter, an excitation bandpass filter (488±20 nm), a dichroic mirror (cut-off wavelength: 500 nm), and a 20×objective. Fluorescence emitted from the cells was then collected by the same objective and recorded using a high-sensitivity CCD camera (ORCA-Flash2.8, Hamamatsu, Japan) after passing through an emission bandpass filter (530±20 nm).
Fluo-4 AM was used for live-cell calcium fluorescence imaging. 10^5 cells were plated on 35 mm Petri dishes and incubated in the complete medium at 37° C. for 36 h before […] Fluo-4 AM solution, diluted with the external buffer solution, was added to the dishes. After the cells were incubated at room temperature for 30 min, the cells were thoroughly washed with external buffer solution and then time-lapse fluorescence imaging was initiated after the target cells were positioned at the beam focus. Fluorescence images were acquired at 1 Hz for t=300 s (exposure time: 300 ms), as the HFFU was switched on and off at t=50 s and t=200 s, respectively.
The program was written to obtain the mean normalized maximum calcium elevation value and a cell responding ratio from segmented images of target cells, semi-automatically. A cell responding ratio=the number of cells responding to HFFU/the number of total cells subjected to HFFU. More specifically, after fluorescence images of cells acquired at different time-points (0-300 s, step: 1 s) were averaged, the target cell receiving HFFU in the averaged image was selected and segmented by Otsu's method (Otsu, 1979), followed by the calculation of mean fluorescence intensities in the segmented regions of each image obtained at the indicated time-points. Temporal changes of the mean fluorescence in the target cell were then analyzed to determine whether calcium elevations were elicited by HFFU in the cell. The calcium elevation was here measured as the increase in the fluorescence intensity. […]

CC(=O)O[C@H]1C(=O)[C@@]2(C)[C@H]([C@H](OC(=O)c3ccccc3)[C@]3(O)C[C@H](OC(=O)[C@H](O)[C@@H](NC(=O)c4ccccc4)c4ccccc4)C(C)=C1C3(C)C)[C@]1(OC(C)=O)CO[C@@H]1C[C@@H]2O [Taxol]
reduction of the CRI relative to the untreated cells (1 nM Taxol): −50%
normalized CRI (cell response index) (1 nM Taxol): 0.52
normalized CRI (cell response index) (10 nM Taxol): 0.29
CRI remaining (reduced to) (100 nM Taxol): 0%
normalized CRI (cell response index) (100 nM Taxol): 0
